# Publication PMC10645073, “Interaction of gallium, indium and vanadyl diacetylcurcumin complexes with lysozyme: mechanistic aspects and evaluation of antiamyloidogenic activity” (Royal Society Open Science, 2023)
# Legend:
# [1] = target: T1, hen egg white lysozyme (HEWL) (Gallus gallus, UniProt P00698); assay: Intrinsic fluorescence quenching of HEWL (Stern-Volmer, double logarithmic and van't Hoff analysis); type: binding; details: for KSV (Stern-Volmer quenching constant): HEWL 3 µM; for kq (bimolecular quenching rate constant): kq = KSV/τ0, τ0 10^−8 s; for blue shift of HEWL emission maximum on quenching: excitation 295 nm, emission maximum 345 nm; for fluorescence quenching mechanism: from KSV versus temperature and kq; for main forces / modes of interaction stabilizing the bioconjugate: from signs of ΔH^0 and ΔS^0; for binding constant, order of magnitude: summary of table 1; for ΔH^0 (enthalpy change of binding) / ΔS^0 (entropy change of binding): van't Hoff plot over 293–308 K
# T1 construct: whose 129 amino acid residues are linked together by four disulfide bridges to form a single polypeptide chain; purchased Sigma-Aldrich L6876; host or cells: hen egg white (natural source, per the protein's name)
# T1 sequence (P00698 19-147): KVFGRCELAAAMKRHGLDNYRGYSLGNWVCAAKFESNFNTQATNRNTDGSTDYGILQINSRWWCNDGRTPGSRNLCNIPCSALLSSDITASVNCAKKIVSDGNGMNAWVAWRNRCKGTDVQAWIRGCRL
# Protocol: The intrinsic fluorescence spectra of HEWL (3 µM) in the absence and presence of Ga(DAC)3, In(DAC)3 and VO(DAC)2 complexes were collected using a Varian Cary Eclipse fluorescence spectrophotometer equipped with a 10 mm quartz cell by adjusting the excitation wavelength to 295 nm and setting the width of both excitation and emission slits at 5 nm. After adding the mentioned concentrations of the metal complexes of diacetylcurcumin to HEWL solution, the samples were scanned in the wavelength range of 300–500 nm. Corrections were made for the inner filter effect on the fluorescence spectra according to the following equation: Fcor=Fobs×10^(Aex+Aem)/2, where Fcor is corrected fluorescence intensity, Fobs is the observed (uncorrected) fluorescence intensity, Aex is the absorbance at the fluorescence excitation wavelength and Aem is the absorbance at the selected fluorescence emission wavelength.
# The fluorescence quenching process of HEWL in the presence of three metal complexes of diacetylcurcumin can be quantified according to the well-known Stern-Volmer equation:3.1 F0/F=1+KSV[Q]=1+kqτ0[Q],
# where F0 and F represent the intrinsic emission intensities of HEWL fluorophores, respectively, in the absence and presence of the metal complexes of diacetylcurcumin, and [Q] is the molar concentration of quencher. KSV, kq and τ0 denote the Stern-Volmer quenching constant, bimolecular quenching rate constant, and the average lifetime of fluorophore without quencher, respectively. The value of KSV, as a parameter of the sensitivity of the fluorophore to a quencher, can be estimated from the slope of the linear plot of F0/F as a function of [Q] (figure 2d,e,f; electronic supplementary material, figure S1). To obtain more accurate quantification of fluorescence data, the total area of the emission fluorescence peaks (S0 and S) was applied instead of the emission fluorescence intensities (F0 and F). The fluorescence quenching phenomenon can be generally divided into two distinct classes: static quenching and dynamic quenching. Owing to the reciprocal and direct correlations between the KSV parameter and temperature, respectively, for static and dynamic quenching, the observed trend in the KSV value versus temperature can be used to distinguish these mechanisms from each other. In dynamic quenching, an increase in temperature leads to faster diffusion of molecules by which weakly bound nonfluorescent complexes are further dissociated, and the value of KSV increases. From the data recorded in table 1, it can be seen that the KSV value of HEWL/Ga(DAC)3 and HEWL/In(DAC)3 systems decreases as temperature increases, while it increases with increasing temperature for the HEWL/VO(DAC)2 system. […] Considering a lifetime value of 10^−8 s for the native fluorophores, [27] the equation kq = KSV/τ0 gives the kq values greater than the diffusion-limited quenching value of 2.0 × 10 ^+ 10 M^−1 s^−1 for all systems.
# Assuming that all the binding sites of HEWL are identical and independent and an equilibrium interaction is established between HEWL and each of the metal complexes of diacetylcurcumin, the fluorescence quenching process can be further analysed by the following double logarithmic equation:3.2 log(F0−F/F)=logKb+nlog[Q], where Kb and n represent the binding constant and number of binding sites on each HEWL molecule, respectively. Plotting log[(F0 − F)/F] versus log[Q] produces a straight line whose slope and intercept can be used respectively to estimate the values of n and Kb (electronic supplementary material, figures S2A, S2B, S2C and S3). […] In other words, the resulting bioconjugates are the product of the interaction between HEWL and the metal complexes of diacetylcurcumin with a 1 : 1 stoichiometry. […]
# HEWL amyloid fibrils = target: T2, HEWL amyloid fibrils (Gallus gallus, UniProt P00698); assay: Thioflavin T fluorescence assay of HEWL amyloid fibrillation; type: biochemical, hen; details: HEWL 70 µM, complex 10 µM; for effect on amyloid fibrillation of HEWL (ThT fluorescence): pH 2.0, 140 min incubation
# T2 construct: whose 129 amino acid residues are linked together by four disulfide bridges to form a single polypeptide chain; purchased Sigma-Aldrich L6876; host or cells: hen egg white (natural source, per the protein's name)
# T2 sequence (P00698 19-147): as above
# Protocol: To prepare HEWL amyloid fibrils, a solution of the protein (5 ml, 70 µM) was prepared in 100 mM PBS, and the pH adjusted to 2.0 using hydrochloric acid. The solution was then incubated in a shaker incubator bath at 450 rpm and 58°C for 140 min. To investigate the effect of the diacetylcurcumin-based metal complexes on HEWL amyloid fibrillation, three separate samples, each containing HEWL (70 µM) and one of the metal complexes of diacetylcurcumin (10 µM), were prepared and incubated under the above conditions.
# For ThT assay, a 17 µl volume of the incubated HEWL (70 µM) samples was added to 983 µl of ThT solution for the final HEWL and ThT concentrations of 1.2 µM and 20 µM, respectively. ThT spectra containing the incubated HEWL/metal complexes were recorded 5 min after recording the spectrum of ThT solution as control solution. All spectra were recorded using a Varian Cary Eclipse fluorescence spectrophotometer at 25°C. ThT solution was excited with a 440 nm wavelength and emission fluorescence spectra were recorded in the wavelength range of 450–600 nm.
# Enhancement of ThT fluorescence intensity upon its rapid and strong binding to the cross β-sheet structure of amyloid fibrils is important evidence to confirm the amyloid fibril formation of proteins. The inhibitory activities of Ga(DAC)3, In(DAC)3 and VO(DAC)2 complexes on the amyloid fibrillation process of HEWL were explored by ThT fluorescence assay over 140 min period of incubation at pH 2.0. The kinetics of the fibrillation process in the absence and presence of the considered complexes is depicted in figure 4a.
# To estimate the lag time and apparent rate constant for growth of fibrils, the following equation was employed on the ThT fluorescence data: F=Fmin+Fmax/1+e^−(t−t0/τ),
# where F is the fluorescence intensity in t, Fmin and Fmax are fluorescence intensities in initial time and saturation phase, respectively, t is incubation time and t0 is required time to get 50% of maximal fluorescence intensity. The apparent rate constant, kapp, is given by 1/τ and the lag time is approximated by t0 − 2τ. […]
Structure (SMILES),n (number of binding sites on each HEWL molecule) ([1]; T 293 K),ΔG^0 (Gibbs free energy change of binding) ([1]; T 293 K) [kcal/mol],KSV (Stern-Volmer quenching constant) ([1]; T 293 K),kq (bimolecular quenching rate constant) ([1]; T 293 K),n (number of binding sites on each HEWL molecule) ([1]; T 303 K),ΔG^0 (Gibbs free energy change of binding) ([1]; T 303 K) [kcal/mol],KSV (Stern-Volmer quenching constant) ([1]; T 303 K),kq (bimolecular quenching rate constant) ([1]; T 303 K),n (number of binding sites on each HEWL molecule) ([1]; T 308 K),ΔG^0 (Gibbs free energy change of binding) ([1]; T 308 K) [kcal/mol],KSV (Stern-Volmer quenching constant) ([1]; T 308 K),kq (bimolecular quenching rate constant) ([1]; T 308 K),blue shift of HEWL emission maximum on quenching [1] [nm],fluorescence quenching mechanism [1],main forces / modes of interaction stabilizing the bioconjugate [1],"binding constant, order of magnitude [1]",ΔH^0 (enthalpy change of binding) [1] [kcal/mol],ΔS^0 (entropy change of binding) [1] [J mol^−1 K^−1],effect on amyloid fibrillation of HEWL (ThT fluorescence) (HEWL amyloid fibrils),further results
"COc1cc(C=CC(=O)C=C([O-])C=Cc2ccc(OC(C)=O)c(OC)c2)ccc1OC(C)=O.COc1cc(C=CC(=O)C=C([O-])C=Cc2ccc(OC(C)=O)c(OC)c2)ccc1OC(C)=O.COc1cc(C=CC(=O)C=C([O-])C=Cc2ccc(OC(C)=O)c(OC)c2)ccc1OC(C)=O.[In+3] [In(DAC)3, indium diacetylcurcumin]",(1.26 ± 0.01),-8.368 ± 0.0024,(0.10 ± 0.00) × 10^+6 M^−1,(0.10 ± 0.00) × 10^+14 M^−1 s^−1,(1.25 ± 0.04),-8.65 ± 0.0024,(9.61 ± 0.10) × 10^+5 M^−1,(9.61 ± 0.10) × 10^+13 M^−1 s^−1,(1.25 ± 0.02),-8.788 ± 0.0024,(1.04 ± 0.02) × 10^+5 M^−1,(1.04 ± 0.02) × 10^+13 M^−1 s^−1,4,static mechanism,electrostatic interactions,10^+6 M^−1,-0.148 ± 0,117.38 ± 0.01,considerable delaying effect,effect on lag time and t0 of fibrillation (HEWL amyloid fibrils; pH 2.0): significant increase in the lag time and t0
"COc1cc(/C=C/C(=O)C=C([O-])/C=C/c2ccc(OC(C)=O)c(OC)c2)ccc1OC(C)=O.COc1cc(/C=C/C(=O)C=C([O-])/C=C/c2ccc(OC(C)=O)c(OC)c2)ccc1OC(C)=O.[O]=[V+2] [VO(DAC)2, vanadyl diacetylcurcumin]",(1.35 ± 0.04),-8.217 ± 0.858,(2.70 ± 0.02) × 10^+4 M^−1,(2.70 ± 0.02) × 10^+12 M^−1 s^−1,(0.93 ± 0.02),-5.767 ± 0.858,(2.78 ± 0.03) × 10^+4 M^−1,(2.78 ± 0.03) × 10^+12 M^−1 s^−1,(0.75 ± 0.04),-4.543 ± 0.858,(2.80 ± 0.02) × 10^+4 M^−1,(2.80 ± 0.02) × 10^+12 M^−1 s^−1,2,"dual mechanism, including both static and dynamic quenching",van der Waals interactions and hydrogen bonds,10^+6 to 10^+3 M^−1,-79.988 ± 0.246,−1024.87 ± 3.44,highest inhibitory effect,n (number of binding sites on each HEWL molecule) ([1]; T 298 K): (1.15 ± 0.03); ΔG^0 (Gibbs free energy change of binding) ([1]; T 298 K): -6.993 ± 0.858 kcal/mol; KSV (Stern-Volmer quenching constant) ([1]; T 298 K): (2.70 ± 0.04) × 10^+4 M^−1; kq (bimolecular quenching rate constant) ([1]; T 298 K): (2.70 ± 0.04) × 10^+12 M^−1 s^−1
